Laboratory results as given in patent US20240122179A1, “AUXINIC HERBICIDES AND METHODS OF USE THEREOF” (CORTEVA AGRISCIENCE LLC, priority 2021, published 2024).
Like-named read-outs stand apart in the source and are kept apart here.

Experiments:
Amaranthus rudis (AMATA) = test: Postemergence herbicide evaluation, percent reduction in plant size vs untreated control, 21 days after treatment; assay type: in vivo, Amaranthus rudis (tall water hemp); conditions: Amaranthus tuberculatus, post-emergence, 504 h, AMATA, postemergence, read-out: Control/Injury; for pest or weed control at 140 g/ha: rate 140 g ae/ha; for pest or weed control at 280 g/ha: rate 280 g ae/ha
In short: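 Growth-reduction values are percent decrease in plant size relative to untreated plants, scored 21 days post-application. Amaranthus rudis (2-8 leaves) received postemergence sprays at 140 or 280 g ae/ha, 187 L/ha, in a mixed acetone/DMSO/water/isopropanol carrier with crop oil concentrate. Greenhouse conditions were 25-28° C, 50-60% RH; 3-4 randomized replicates.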

[1] = test system: Ambrosia artemisiifolia (AMBEL); test: as above; assay type: in vivo, Ambrosia artemisiifolia (common ragweed); conditions: post-emergence, 504 h, AMBEL, postemergence, read-out: Control/Injury; for pest or weed control at 140 g/ha: rate 140 g ae/ha; for pest or weed control at 280 g/ha: rate 280 g ae/ha
In short: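 Test compounds at 140 or 280 g ae/ha were applied by track sprayer (187 L/ha, spray solution containing acetone/DMSO, isopropanol, crop oil, surfactant) to 2–8 leaf plants, 3–4 replicates. Plants were kept in a greenhouse at 25–28 °C. Size reduction was scored against untreated controls at 21 days.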

Kochia scoparia (KCHSC) = test: as above; assay type: in vivo; conditions: Bassia scoparia, post-emergence, 504 h, KCHSC, postemergence, read-out: Control/Injury; for pest or weed control at 140 g/ha: rate 140 g ae/ha; for pest or weed control at 280 g/ha: rate 280 g ae/ha
In short: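 Values are percent reduction in plant size against an untreated control, measured 21 days after a single postemergence spray at 140 or 280 g ae/ha (187 L/ha, 276 kPa). Treatments used 3-4 randomized complete-block replicates on 2 to 8 leaf-stage plants kept in a 25-28 °C greenhouse, with compounds in acetone/DMSO-based solvent containing crop oil and surfactant.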

[2] = test system: Amaranthus palmeri (AMAPA); test: as above; assay type: in vivo, Amaranthus palmeri (Palmer amaranth); conditions: post-emergence, 504 h, postemergence, read-out: Control/Injury; for pest or weed control at 140 g/ha: rate 140 g ae/ha; for pest or weed control at 280 g/ha: rate 280 g ae/ha
In short: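 Percent reduction in plant size relative to untreated plants, measured 21 days after track-sprayer application (187 L/ha) of 140 or 280 g ae/ha to Amaranthus palmeri at the 2 to 8 leaf stage. Randomized complete block, 3 or 4 replicates, greenhouse at 25 to 28° C; spray solution acetone/DMSO with isopropanol, water and crop oil concentrate.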

[3] = test system: Conyza canadensis (L.) (ERICA); test: as above; assay type: in vivo, Conyza canadensis (L.) (Horseweed); conditions: Erigeron canadensis, post-emergence, 504 h, ERICA, postemergence, read-out: Control/Injury; for pest or weed control at 140 g/ha: rate 140 g ae/ha; for pest or weed control at 280 g/ha: rate 280 g ae/ha
In short: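 Track-sprayer applications (187 L/ha, 276 kPa) of 140 or 280 g ae/ha, technical material dissolved in acetone/DMSO then diluted with crop oil and surfactant-containing solvent, to greenhouse Conyza canadensis at 2-8 leaves. After 21 days, size reduction relative to untreated plants was recorded; 3-4 randomized replicates.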

Glycine max = test: whole plant or invertebrate; conditions: for Control/Injury: in vivo; for plant injury at 140 g/ha / plant injury at 280 g/ha: Glycine max, post-emergence, 504 h, read-out: Control/Injury
Experimental: Plants were grown in a soil media composed of 90% by volume Promix BX (Premier Tech Horticulture, Quakertown, PA) and 10% Profile Greens Grade (Profile Products LLC, Buffalo Grove, IL). Promix BX contains approximately 83% Sphagnum Peat Moss, 13% Perlite, 5% vermiculite, and proprietary amounts of limestone, starter fertilizer, and wetting agent. Profile Greens Grade is a sand-sized granule formed from calcining illite and montmorillonite clay. Several seeds of each species were planted in 10 cm square pots and top watered twice daily. Plant material was propagated in a warm greenhouse with temperature ranging from 25 to 28° C. and 50 to 60% relative humidity at the Corteva Global Headquarters (Indianapolis, Indiana, USA). Natural light was supplemented with 1000-watt metal halide overhead lamps with an average illumination of 500 μE m^−2 s^−1 photosynthetic active radiation for 16 consecutive hours each day. Plants were top-watered prior to herbicide application and sub-watered after herbicide application.
Appropriate amounts of test materials were weighed out into glass vials in their technical form to deliver either 140 or 280 g acid equivalent (ae)/ha. The samples were dissolved in 3 ml of Solvent 1. Solvent 1 is 97% acetone and 3% dimethyl sulfoxide and serves as a general-purpose solvent (GPS) for dissolving technical materials. […] The samples were then diluted to their final concentration using 17 ml of solvent 2 for a total of 20 ml of spray solution. Solvent 2 contains 41.58% GPS, 45.53% water, 11.88% isopropyl alcohol, 0.99% crop oil concentrate and 0.02% Trition X-155 surfactant. All percentages are listed on a volume basis. Dicamba diglycolamine was applied as a formulated herbicide, Clarity™ and diluted with solvent 2 to compare all materials in the same spray solution.
Herbicide applications were made to 3 to 4 replicates of each plant species at the 2 to 8 leaf stage, depending on the species. Treatments were applied with a research track-sprayer (Generation III Research Sprayer manufactured by DeVries Manufacturing in Hollandale, MN, USA) calibrated to deliver a spray volume of 187 L/ha. The track-sprayer was fitted with an 8003E nozzle from Spray Systems Company (North Avenue and Schmale Road, P.O. Box 7900, Wheaton, IL 60187), and used a spray pressure of 276 kPa pressure and a speed of 3.1 km/h. The nozzle height was 46 cm above the plant canopy. The experimental design used for the trials was a randomized complete block with 3 or 4 replications per treatment. After application, plants were placed on carts according to the randomization and returned to the greenhouse. Plants were sub-watered after treatment with Indianapolis city water or fertilized three times a week with a commercial fertilizer solution (Jack's Professional 15-5-15 4 Ca 2 Mg fertilizer (manufactured by JR PETERS INC., 6656 Grant Way, Allentown, PA 18106; www.jrpeters.com). Percent visual control assessments were made on a scale of 0 to 100% (where 0 was no control and 100 was complete plant death) at 7, 14, and 21 days after treatment.
In conformity with the methods outlined in Example 49, the effect of representative experimental compounds on the growth of Glycine max was determined at 2 different levels (respectively, 140 and 280 g acid equivalent (ae)/ha) of the experimental actives tested. Plants were treated with one of the compounds, a control plant was not treated. Twenty-one days after treatment, the plants were measured. The data is present as a percent reduction in plant size relative to the untreated control.

[4] = R-AMAPA, percent reduction vs untreated control, 21 days after treatment
[5] = percent reduction vs untreated control, 21 days after treatment
[6] = percent reduction vs untreated, 21 days after treatment

Row | Compound | pest or weed control at 140 g/ha (Amaranthus rudis (AMATA)) | pest or weed control at 280 g/ha (Amaranthus rudis (AMATA)) | pest or weed control at 140 g/ha [1] | pest or weed control at 280 g/ha [1] | pest or weed control at 140 g/ha [2, 4] | pest or weed control at 280 g/ha [2, 4] | pest or weed control at 140 g/ha [3, 5] | pest or weed control at 280 g/ha [3, 5] | Control/Injury (Glycine max) | pest or weed control at 140 g/ha (Kochia scoparia (KCHSC); [6]) | pest or weed control at 280 g/ha (Kochia scoparia (KCHSC); [6]) | pest or weed control at 140 g/ha ([2]; AMAPA) | pest or weed control at 280 g/ha ([2]; AMAPA) | pest or weed control at 140 g/ha [3] | pest or weed control at 280 g/ha [3] | plant injury at 140 g/ha (Glycine max) | plant injury at 280 g/ha (Glycine max) | pest or weed control at 140 g/ha (Kochia scoparia (KCHSC); [5]) | pest or weed control at 280 g/ha (Kochia scoparia (KCHSC); [5]) | also measured
1 | COc1c(Cl)ccc(Cl)c1C(=O)Nc1ncccn1 [Compound A-62] | 65% | 76% | 83% | 87% | 73% | 92% | 82% | 93% | 3 |  |  |  |  |  |  |  |  |  |  | pest or weed control at 140 g/ha (Kochia scoparia (KCHSC)): 77%; pest or weed control at 280 g/ha (Kochia scoparia (KCHSC)): 90%
2 | COc1c(Cl)ccc(Cl)c1C(=O)O/N=C(\N)CCCCC/C(N)=N/OC(=O)c1c(Cl)ccc(Cl)c1OC [Compound A-146] | 70% | 63% | 83% | 86% | 43% | 60% |  |  | 0 | 89% | 96% |  |  |  |  |  |  |  |  | pest or weed control at 140 g/ha [3, 6]: 73%; pest or weed control at 280 g/ha [3, 6]: 63%
3 | COc1c(Cl)ccc(Cl)c1C(=O)N1C(=O)C(=O)c2ccccc21 [Compound A-116] | 5% | 33% | 3% | 10% |  |  |  |  | 2 | 0% | 5% | 8% | 30% | 3% | 5% |  |  |  |  | 
4 | COc1c(Cl)ccc(Cl)c1C(=O)Oc1cc(C(F)(F)F)n(C)n1 [Compound A-118] | 68% | 80% | 80% | 97% |  |  |  |  | 8 | 83% | 99% | 63% | 73% | 93% | 96% |  |  |  |  | 
5 | COc1c(Cl)ccc(Cl)c1C(=O)Nc1ccc(Cl)cc1 [Compound A-77] | 83% | 85% | 67% | 77% | 82% | 78% | 40% | 68% |  |  |  |  |  |  |  | 8% | 8% |  |  | pest or weed control at 140 g/ha (Kochia scoparia (KCHSC)): 96%; pest or weed control at 280 g/ha (Kochia scoparia (KCHSC)): 93%
6 | COc1c(Cl)ccc(Cl)c1C(=O)O/N=C/c1cccnc1 [Compound A-81] | 3% | 8% | 15% | 27% | 17% | 15% | 0% | 7% |  |  |  |  |  |  |  | 19% | 20% | 2% | 7% | 
7 | CCCCCC(=O)NOC(=O)c1c(Cl)ccc(Cl)c1OC [Compound A-80] | 33% | 38% | 63% | 62% | 20% | 35% | 20% | 23% |  |  |  |  |  |  |  | 2% | 4% | 13% | 22% | 
8 | COc1c(Cl)ccc(Cl)c1C(=O)ONC(=O)c1cccnc1 [Compound A-94] | 68% |  | 75% | 83% | 73% | 80% | 62% | 77% | 15 | 93% | 98% | 83% | 99% | 95% | 99% | 12% | 3% | 85% | 93% | 
